This is an account of results in patent US11129801B2 (SigmaThera SAS, priority 2016, dated 2021).

The subject of experiment [1] is Aβ25-35 mouse model of Alzheimer's disease. Kind of experiment: Spontaneous alternation in the Y-maze, Aβ25-35 mouse model. The class given is in vivo. The note with it: for protection from injury produced by Aβ25-35 treatment, single agent: Experiment 4, i.p. day 1 to day 6, dose dependent; for highest sub-active dose, spontaneous alternation: Experiment 3, i.p. Here is the method:
(§1) The compound efficacy was evaluated 7 days after the peptide administration on the attenuation of the Aβ25-35-induced learning deficits (spatial working memory using the spontaneous alternation in the Y-maze test, and contextual long-term memory using the passive avoidance test).
(§2) The mice were tested 7 days post injection or at the indicated time points.
(§3) In Experiment 2, twelve mice per experimental group were administered Sc.Aβ or Aβ25-35-amyloid peptide on day 0 by i.c.v. injection. […] Animals were tested at day 7 and later.
(§4) The synergy/additivity/antagonism was evaluated by calculating the combination index. […] Animals were then tested at day 7 and later.
(§5) Animals were tested at day 7 and later.
(§6) For each of Experiments 1-4, on day 7, all animals were tested for the spontaneous alternation performance in the Y-maze test, an index of spatial working memory. On day 8 and 9, the contextual long-term memory of the animals was assessed using the step-through type passive avoidance procedure. On day 9, immediately after the retention session, animals were sacrificed by decapitation and the hippocampus and cortex dissected out. Lipid peroxidation was analyzed in the hippocampus, whereas neuroinflammation, apoptosis, amyloid burden and hyperphosphorylation of tau protein were analyzed in cortex.
The homogeneous oligomeric preparation of Aβ25-35 peptide was performed according to the AMYLGEN's own procedure. Each mouse was anesthetized with isoflurane 2.5% and injected i.c.v. with Aβ25-35 peptide (9 nmol/mouse) or Sc.Aβ peptide (9 nmol/mouse), in a final volume of 3 μl/mouse, according to the previously described method (Maurice T, et al. (1996). Brain Res. 706(2): 181-193, Maurice T, et al. (1998) Neuroscience 83(2): 413-428, Meunier J, et al. (2006) British J. Pharmacol. 149(8): 998-1012, Villard V, et al. (2009) Neuropsychopharmacology 34(6): 1552-1566, Villard V, et al. (2011) J. Pharmacol. Sci. 115(3): 279-292).
Animals: Male Swiss mice, 6 weeks old and weighing 30-35 g, from JANVIER (Saint Berthevin, France), were kept for housing and experiments took place within the animal facility building of the University of Montpellier 2 (CECEMA, Office of Veterinary Services agreement #B-34-172-23). Animals were housed in groups with access to food and water ad libitum, except during behavioral experiments. They were kept in a temperature and humidity controlled animal facility on a 12 h/12 h light/dark cycle (lights off at 07:00 pm). Mice were numbered by marking their tail using permanent markers. All animal procedures were conducted in strict adherence to the European Union directive of Sep. 22, 2010 (2010/63/UE). Diagnostic summary reports of JANVIER were annexed to the study report.
Spontaneous alternation performance: Immediate working memory performance was assessed by recording spontaneous alternation behavior during a single session in a Y-maze as described previously (Itoh J, et al. (1993) Eur J Pharmacol 236(3): 341-345; Hiramatsu M and Inoue K (1999) Br J Pharmacol 127(3): 655-660). The Y-maze is made of grey polyvinylchloride. Each arm of the Y-maze was 40 cm long, 3 cm wide, and 13 cm high at the bottom, 10 cm wide at the top, and converging at an equal angle. Each mouse was placed at the end of one arm and allowed to move freely through the maze during an 8 min session. The series of arm entries, including possible returns into the same arm, was checked visually. An alternation was defined as entries into all three arms on consecutive occasions. The number of maximum alternations is therefore the total number of arm entries minus two and the percentage of alternation was calculated as (actual alternations/maximum alternations)×100. Parameters included the percentage of alternation (memory index) and total number of arm entries (exploration index).

Experiment [2] has the same test system. As to the kind of experiment: Aβ25-35 mouse model, overall neuroprotection (summary statements). The note with it: versus usual doses; ibuprofen, atorvastatin after allometric scaling mouse to human. The format is in vivo. Here is the method: as §1, §2, §3, §4, §5, §6
Experiment [3] deals with sigma-1 receptor / BiP complex. As to the kind of experiment: Dissociation of BiP from sigma-1 receptor in CHO cells. The note with it: 10 μM NE100 with 10 μM igmesine. The format is cell-based. Here is the method:
CHO cells were grown in a 6-well plates and treated with the compounds in culture medium at 37° C. for 30 min at 1 μM and 10 μM final concentration. The reaction was stopped by medium removal and adding 3 mL PBS at 37° C. CHO cells were harvested and suspended in 50 mM HEPES (pH7.4) followed by cross-linking with 50 μg/ml of dithio (bis) succinimidyl propionate (Thermo Fisher Scientific, Waltham, Mass.) for 30 min at 4° C. The reaction was stopped by adding Tris-HCl (pH 8.8, final 50 mM). Fifteen minutes after incubation on ice, cells were lysed with RIPA buffer [50 mM Tris (pH7.4), 150 mM NaCl, 1% Triton X-100, 0.3% sodium deoxycholate, 0.1% SDS, protease inhibitor cocktail (Roche Complete)]. After centrifugation at 12,000 g, 1 min, the supernatant was incubated overnight at 4° C. with Sig-1R antibody (Abcam). The cell lysate was incubated with Sepharose protein-A (Invitrogen) for 90 min. After centrifugation at 12,000 g, 1 min, the supernatant was discarded and the pellet was washed in 0.5 mL RIPA buffer. After a second centrifugation at 12,000 g, 20 min, the supernatant was discarded and the pellet was washed in 0.5 mL 2× Sample buffer/bMCE buffer. Following a third centrifugation at 12,000 g, 1 min, the supernatant was analysed by ELISA assay, according to the manufacturer's protocol (USCNK #SEC343Mu).

The test system of another experiment is sigma-1R. The note with it: cited from earlier work.

Turning to `CC(C)Cc1ccc(C(C)C(=O)O)cc1` (stereo not shown) [ibuprofen, reference compound], the “protection from injury produced by Aβ25-35 treatment, single agent” value (“protection from injury produced” for short) in experiment [1] is reported as “able to protect”. The “lowering of the partner drug's dose when associated with igmesine” value (from here on “lowering of the partner drug's dose”) in experiment [2] was determined as 3 fold.
As for `C#CCN(C)[C@H](C)Cc1ccccc1` [selegiline], the “protection from injury produced” value in experiment [1] is “able to protect”.
Consider `COc1cc2c(cc1OC)C(=O)C(CC1CCN(Cc3ccccc3)CC1)C2` (stereo not shown) [donepezil, reference compound], for which the “highest sub-active dose, spontaneous alternation” value in experiment [1] amounted to 0.25 mg/kg. Also, the “lowering of the partner drug's dose” value in experiment [2] amounted to 4 fold.
For the compound `CC(C)c1c(C(=O)Nc2ccccc2)c(-c2ccccc2)c(-c2ccc(F)cc2)n1CC[C@@H](O)C[C@@H](O)CC(=O)O` [atorvastatin, reference compound], in experiment [1], the “protection from injury produced” value is “able to protect”. Besides, in experiment [2], the “lowering of the partner drug's dose” value is 10 fold.
Turning to `CC12CC3CC(C)(C1)CC(N)(C3)C2` [memantine], the “highest sub-active dose, spontaneous alternation” value in experiment [1] amounted to 0.5 mg/kg.
Turning to `CCCN(CCC)CCc1ccc(OC)c(OCCc2ccccc2)c1` [NE100, reference compound], the “antagonism of igmesine-induced BiP dissociation” value in experiment [3] is on record as “prevented”.
Turning to `CCC(C/C=C/c1ccccc1)(c1ccccc1)N(C)CC1CC1` (stereo not shown) [JO-1783, reference compound], the “potency relative to igmesine at the binding site” value in the experiment on sigma-1R is listed as “ten times less potent”.
